Series [1] has as its target T1, CYP2C9 (Homo sapiens, UniProt P11712). As to the kind of experiment: Metabolism based on in vivo data. Details: from tissue; host or cells: endogenous enzyme of clinical subjects (in vivo). Here is the method: (§1) Based on those pharmacokinetics, bifeprunox (an investigational partial dopamine agonist antipsychotic compound) was rapidly absorbed after oral administration. Multiple-dose PK of bifeprunox were dose proportional over the range of 20 to 40 mg doses. Bifeprunox was extensively distributed into peripheral tissues and highly protein bound. It was primarily eliminated in the feces. […] Bifeprunox has a low drug interaction potential with other drugs used in these studies (e.g. lithium, warfarin and famotidine).

The target of series [2] is T2, CYP3A4 (Homo sapiens, UniProt P08684). Description: Metabolism based on in vivo data. On the set-up: from tissue; host or cells: endogenous enzyme of clinical subjects (in vivo). Here is the method: as §1
T2 sequence (P08684 whole entry): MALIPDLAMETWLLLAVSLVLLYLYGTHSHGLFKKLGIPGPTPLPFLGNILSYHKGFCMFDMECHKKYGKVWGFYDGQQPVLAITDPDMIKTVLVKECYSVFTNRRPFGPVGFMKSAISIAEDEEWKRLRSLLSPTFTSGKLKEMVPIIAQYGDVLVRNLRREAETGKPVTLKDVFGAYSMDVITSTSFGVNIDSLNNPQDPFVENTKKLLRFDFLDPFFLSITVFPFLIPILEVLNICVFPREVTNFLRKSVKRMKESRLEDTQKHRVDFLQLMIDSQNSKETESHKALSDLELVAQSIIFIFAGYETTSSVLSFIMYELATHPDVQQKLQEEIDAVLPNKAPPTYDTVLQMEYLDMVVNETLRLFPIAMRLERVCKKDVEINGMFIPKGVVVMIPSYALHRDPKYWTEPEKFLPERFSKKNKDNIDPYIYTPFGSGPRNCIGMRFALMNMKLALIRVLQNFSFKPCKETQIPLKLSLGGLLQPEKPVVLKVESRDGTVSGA
Series [3] in a line: Maximum tolerated single dose. Format: in vivo, human. The settings on record: healthy subjects and patients with schizophrenia. Here is the method: (§2) In healthy subjects and patients with schizophrenia, the maximum tolerated single dose of bifeprunox was 0.5 mg. Tolerance to dose-limiting side effects (nausea, dizziness, vomiting, and orthostatic hypotension) developed as the dosage was titrated upwards. All PK assessments at doses higher than 0.5 mg were performed following multiple dosages under steady-state conditions. Doses of 5-40 mg were administered in efficacy studies. PK parameters describing absorption, distribution, metabolism, and elimination were calculated based on non-compartmental analysis. PK parameter values from each study were combined to create a pooled dataset. The potential influence of gender, body weight, and race on bifeprunox PK was analyzed.

The target in series [4] is T1, CYP2C9. As to the kind of experiment: In vitro metabolism. The conditions noted are these: in vitro data. The series is classed as in vitro ADME.
Series [5] can be described thus: Pooled analysis of pharmacokinetic parameters in healthy subjects. The series is classed as in vivo, human.
Excerpt: (§3) The pharmacokinetics of bifeprunox in healthy subjects were investigated based on a pooled analysis of pharmacokinetic (PK) parameters from 21 clinical pharmacology studies. The pooled analysis included PK profiles obtained following single and multiple doses administered to 132 and 399 subjects, respectively, and explored the potential effects of age, gender, body weight and race. In addition, PK in patients (PTS) with schizophrenia were investigated using a population PK approach based on samples from 376 subjects in phase II studies and 434 subjects in phase III studies.
as §2

In another series the test system is plasma proteins. Description: Plasma protein binding. The series is classed as in vitro ADME. The settings on record: human, healthy patients as well as those with renal or hepatic impairment, read-out: bound to plasma proteins. The source says: Apparent volume of distribution (Vz/F) was 1300 L. Based upon the volume of distribution, bifeprunox was extensively distributed into the peripheral tissues. […] Bifeprunox was more than 99% bound to plasma proteins in healthy patients as well as those with renal or hepatic impairment.

Series [6] can be described thus: Administration with a high-fat meal. The series is classed as in vivo, human. The settings on record: 40 mg dose. Here is the method: Bifeprunox was rapidly absorbed after oral administration. The median time to peak plasma concentration (Tmax) was approximately 2 hours. Multiple patients were dosed proportional in the 20 to 40 mg/day range (mean AUC0-24 for 20 mg: 381.5 ng·hr/mL and mean AUC0-24 for 40 mg: 825.1 ng·hr/mL). […] Absolute oral bioavailability of the bifeprunox tablets used in the pooled studies has not been determined.

A short description of series [7]: PK in healthy subjects with reduced CYP2C enzyme activity. The series is classed as in vivo, human.
The nature of series [8]: Population PK assessment in patients with schizophrenia. The series is classed as in vivo, human. The conditions noted are these: schizophrenia patients (SP).
Excerpt: as §3
A population-based PK assessment using compartmental methods was conducted in 810 patients with schizophrenia enrolled in several clinical studies.

The next series is described as follows: In vitro metabolism. Format: in vitro ADME. The conditions noted are these: in vitro data, CYP2A4.
A short description of series [9]: Drug-drug interactions (co-administration). Format: in vivo, human. The text has this:
Co-administration with […] paroxetine had no effect on bifeprunox PK. Bifeprunox exposure was reduced by approximately 50% after co-administration with the CYP3A4 inducer carbamazepine. […] Bifeprunox had no effect on the PK and pharmacodynamics of warfarin and the PK of lithium. […] Administration of famotidine, an H2 antagonist that inhibits gastric acid secretion, had no effect on bifeprunox PK.

Series [10] concerns the target T2, CYP3A4. Description: In vitro metabolism. Format: in vitro ADME. The settings on record: in vitro data.
Series [11] in a line: Tablet dissolution test (paddle method). Format: physicochemical. The settings on record: McILvaine buffer pH 3.0. Here is the method: Three different strengths of tablets (10 mg, 5 mg and 1 mg of bifeprunox mesylate) were prepared having the compositions shown in Table 10; the tablets were designated T1, T2 and T3, respectively.
Each of the tablets were placed in a dissolution test under the following conditions: Apparatus: paddle method; Stirring speed: 50 rpm; Amount of test dissolution medium: 900 ml; Temperature of dissolution medium: 37° C.±0.5° C.
Six different dissolution media were used as follows:
Media 1: Dissolve 2.0 g of sodium chloride dissolved in 7.0 ml of hydrochloric acid, q.s. with water to make 1000 ml (pH 1.2);
Media 2: McILvaine buffer solution (pH 3.0), pH adjusted with 0.05 mol/L of sodium hydrogen phosphate and 0.025 mol/L of citric acid;
Media 3: McILvaine buffer solution (pH 4.0);
Media 4: McILvaine buffer solution (pH 5.0);
Media 6: To 250 ml of 0.2 mol/L potassium dihydrogenphosphate TS add 118 ml of 0.2 mol/L sodium hydroxide TS and water to make 1000 ml.
Dissolution testing was performed in triplicate.

Series [12] is described as follows: Stability of polymorphic forms. The series is classed as physicochemical. The settings on record: for thermodynamic stability of the crystalline form: monomethanesulfonate. The text has this:
During further investigations it appeared that polymorphs γ and δ are metastable, and therefore may have drawbacks when used in a pharmaceutical formulation. The unpredictable formation of one of the two polymorphs γ and δ or a mixture thereof is also undesirable. It would be desirable, therefore, to provide a stable crystalline form of 7-[4-([1,1′-biphenyl]-3-ylmethyl)-1-piperazinyl]-2(3H)-benzoxazolone monomethanesulfonate for pharmaceutical use which can be consistently produced.
Furthermore this crystalline form crystallizes in the form of large crystals which can be easily filtrated and have a high purity. Therefore this polymorph α is particularly suitable for the formulation of bifeprunox mesylate in a solid form, if desired after particle size reduction.

[13] abbreviates: co-administration with carbamazepine.
Where [14] appears, read: co-administration with fluconazole.
Where [15] appears, read: co-administration with ketoconazole.

Like-named read-outs stand apart in the source and are kept apart here.

T1 sequence (P11712 whole entry): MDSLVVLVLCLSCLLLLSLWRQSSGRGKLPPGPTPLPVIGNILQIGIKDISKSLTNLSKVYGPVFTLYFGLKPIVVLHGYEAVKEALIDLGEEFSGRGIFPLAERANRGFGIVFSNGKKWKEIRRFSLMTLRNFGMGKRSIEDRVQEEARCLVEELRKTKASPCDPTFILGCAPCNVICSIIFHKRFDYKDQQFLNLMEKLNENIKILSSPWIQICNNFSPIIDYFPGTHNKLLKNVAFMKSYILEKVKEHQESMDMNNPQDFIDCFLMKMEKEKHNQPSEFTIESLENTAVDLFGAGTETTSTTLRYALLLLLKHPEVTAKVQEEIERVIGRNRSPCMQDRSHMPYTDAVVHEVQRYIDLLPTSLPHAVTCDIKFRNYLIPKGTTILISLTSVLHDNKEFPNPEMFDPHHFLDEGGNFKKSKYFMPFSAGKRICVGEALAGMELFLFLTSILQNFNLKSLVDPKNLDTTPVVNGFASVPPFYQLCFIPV

Regarding `O=c1[nH]c2cccc(N3CCN(Cc4cccc(-c5ccccc5)c4)CC3)c2o1` [bifeprunox, 7-[4-([1,1′-biphenyl]-3-ylmethyl)-1-piperazinyl]-2(3H)-benzoxazolone monomethanesulfonate], the “metabolism by enzyme, based on in vivo data” value at CYP2C9 [1] is given as “primarily metabolized”; on CYP3A4 [2], “to a lesser extent”. Besides, the “maximum tolerated single dose” value in series [3] turned out to be 0.5 mg. Besides, the entries for the “metabolism in the liver by enzyme” value at CYP2C9 [4], in “In vitro metabolism” and at CYP3A4 [10] were “primarily”, “minor contribution” and “primarily”, respectively. The “Bioavailability (predicted)” value in series [5] (based on hepatic blood flow and oral clearance) is given as 54%. The “mean steady-state elimination half-life (t1/2)” value in [5] (following multiple dose administration) was 14.4 hours and approximately 14 hours. Also, the values for the Cl/F in series [5] (healthy subjects (HS)) and in [8] were 62.2 L/h and 57 L/h, respectively. The blood plasma ratio in [5] (human, blood and plasma) was in the range of 0.7 to 0.9. The Vd/F in series [5] (human, in vivo) was roughly 1300 L; in series [5] (human, plasma, oral, healthy subjects, read-out: Apparent volume of distribution (Vz/F)), 1300 L; in series [5] (human, plasma, oral, multiple dose, 20 and 40 mg/day, mean ± SD, read-out: Vzbw/F (apparent volume of distribution corrected by body weight)), 17.3 ± 9.4 L/kg; in series [8] (human, in vivo, oral, read-out: Vz/F) it was roughly 1100 L. Moreover, the “distribution of bifeprunox or its metabolites into red blood cells” value in series [5] (human, in vivo) is recorded as “No extensive distribution”. The half-life in series [5] (human, in vivo) was 14 h; in [5] (human, in vivo, multiple dose, 20 and 40 mg/day, mean ± SD, read-out: T1/2 (converted)), 14.4 ± 5.3 h; in series [8] (human, in vivo, oral), 15 h. In addition, the AUC(0-t) came out at 382 ng·h/mL in series [5] (human, plasma, oral, 20 mg, multiple dose, read-out: mean AUC0-24); 825 ng·h/mL in [5] (human, plasma, oral, 40 mg, multiple dose, read-out: mean AUC0-24); 402 ± 292 ng·h/mL in series [5] (human, plasma, oral, multiple dose, 20 and 40 mg/day, dose normalized to 20 mg, mean ± SD, read-out: AUC0-24). In series [5] (human, plasma, oral, multiple dose, 20 and 40 mg/day, dose normalized to 20 mg, mean ± SD), the Cmax – broadly, the peak of the concentration-time curve – was found to be 62.1 ± 38.2 ng/mL. Further, the Tmax in [5] (human, plasma, oral, multiple dose, 20 and 40 mg/day, median (range), read-out: Tmax) was 2 h; in series [5] (human, plasma, oral administration, read-out: median time to peak plasma concentration (Tmax)) it was roughly 2 h. In series [5] (human, plasma, po, multiple dose, 20 and 40 mg/day, mean ± SD, read-out: CLbw/F (weight normalized oral clearance) (converted)), the CL/F was 15 mL/min/kg. In addition, the “age-, gender-, body weight-, or race-related effects on PK” value in [5] (pooled analysis) was “no clinically relevant”. The “Steady-state mean oral clearance (CL/F)” value in [5] (steady state) is 62.2 L/h. In addition, the fraction unbound in the series on plasma proteins is less than 0.01. Moreover, the “Cmax increase with high-fat meal” value in series [6] came to 29%. The “Tmax delay with high-fat meal” value in series [6] came out at 1.5 h. The results for the “AUC, fold higher than for extensive metabolizers” value in [7] (intermediate metabolizers) and in series [7] (slow metabolizers) were 3.7 fold and 7.1 fold, respectively. Besides, the “Cmax, fold higher than for extensive metabolizers” value stood at 3.1 fold in [7] (intermediate metabolizers (reduced CYP2C activity)) and 3.9 fold in series [7] (slow metabolizers (reduced CYP2C activity)). Besides, the “effect on bifeprunox PK” value in [9] (administration of famotidine) and in series [9] (co-administration with paroxetine) was “no effect” each time. For the same compound, the “prothrombin time profile following warfarin, presence versus absence of bifeprunox” value in series [9] (bifeprunox 40 mg/day with warfarin) is on record as “comparable”. The “decrease of mean AUC0-24” value in series [9] (setting [13]) came to 54%. Moreover, in series [9] (setting [13]), the “decrease of mean Cmax” value came to 50%. Moreover, in series [9] (setting [13]), the “reduction of bifeprunox exposure” value was “approximately 50%”. Also, in series [9] (setting [14]), the “increase of mean bifeprunox AUC0-24” value came out at 3.7 fold. For the same compound, the “increase of mean bifeprunox Cmax” value in series [9] (setting [14]) worked out at 2.5 fold. Besides, in [9] (setting [15]), the “increase of bifeprunox AUC0-24” value stood at 63%. In [9] (setting [15]), the “increase of bifeprunox Cmax” value is recorded as 44%. Besides, the “effect of bifeprunox on the PK of lithium” value in series [9] (co-administration with lithium) is on record as “no effect”. Besides, in series [9] (co-administration with warfarin), the “effect of bifeprunox on the PK and pharmacodynamics of warfarin” value was “no effect”. In addition, in series [11], the dissolution behavior result was “dissolves almost immediately”.

Consider `O=c1[nH]c2cccc(N3CCN(Cc4cccc(-c5ccccc5)c4)CC3)c2o1` [polymorph γ, 7-[4-([1,1′-biphenyl]-3-ylmethyl)-1-piperazinyl]-2(3H)-benzoxazolone monomethanesulfonate], for which the “thermodynamic stability of the crystalline form” value (from here on “thermodynamic stability”) in [12] was “metastable”.

For `O=c1[nH]c2cccc(N3CCN(Cc4cccc(-c5ccccc5)c4)CC3)c2o1` [polymorph α, 7-[4-([1,1′-biphenyl]-3-ylmethyl)-1-piperazinyl]-2(3H)-benzoxazolone monomethanesulfonate], in series [12] (high atmospheric humidity or higher temperature), the “conversion of the polymorphic form” value is “does not undergo conversion”. In addition, the “thermodynamic stability” value in series [12] is recorded as “more thermodynamically stable”.

Regarding `O=c1[nH]c2cccc(N3CCN(Cc4cccc(-c5ccccc5)c4)CC3)c2o1` [polymorph δ, 7-[4-([1,1′-biphenyl]-3-ylmethyl)-1-piperazinyl]-2(3H)-benzoxazolone monomethanesulfonate], the “thermodynamic stability” value in series [12] is “metastable”.

The record behind these values is patent US7964604B2, “Bifeprunox mesylate maintenance dose compositions and methods for using the same” (Solvay Pharmaceuticals B.V., priority 2005, dated 2011).
